From patent US20250019379A1, “NEW CRYSTAL FORM OF COMPOUND, AND PREPARATION METHOD THEREFOR AND USE THEREOF” (E-nitiate Biopharmaceuticals (Hangzhou) Co., Ltd, priority 2021, published 2025)
Several values for one entry are separate records, joined by “and”; a condition that tells them apart may be missing. Equal entries are not always repeated. Marks after values point to notes of the source that are not given here.

Columns and labels:
psoriasis animal model = assay: Psoriasis animal model (imiquimod cream induced); type: in vivo, C57/BL 6J mice; conditions: 30 mg/kg oral twice a day
Text: C57/BL 6J mice, 75, female, 7-8 weeks old, weight 18 g-20 g. The animals were from Zhejiang Weitong Lihua Experimental Animal Technology Co., Ltd. (SCXK (Zhejiang) 2019-0001), experimental animal production certificate number 20210107Abzz0619000247; experimental animal use license number: SYXK (Shanghai) 2020-0001 (Via Biotechnology (Shanghai Co., Ltd).
Modeling and administration method: Use depilatory cream to remove hair from an area of about 2 cm×3 cm on the back of each animal. Control the application time of depilatory cream within 2 minutes. Wash the depilated area with warm water, wash off the depilatory agent, and use immediately. Dry the animal's hair with a hair dryer, and place the animal on a constant-temperature electric blanket at 37° C. for 1 h-2 h. After the animal moves freely, it is placed in a cage for normal rearing and recovery for 1 day (if any animal has red, swollen and damaged skin after hair removal, remove it). On the second day, 54 animals with normal skin were selected and randomly grouped according to body weight, with 9 animals in each group, a total of 6 groups. Each animal in the G2-G6 group was evenly applied with 60 mg (60 μL) of 5 wt % imiquimod cream (Aldara) on the back every day for seven consecutive days.
Skin thickness (double-layer): Use a vernier caliper to measure the double-layer thickness of the back skin before drug administration and modeling, and on days 1, 3, 5, and 7 after drug administration.
PASI score: The condition score refers to the clinical PASI scoring standard, and scores three indicators: erythema, scale, and thickness. The total score is 12 points. The scoring standards are as follows:
Erythema: 0 points, none; 1 points, slight: light red; 2 points, moderate: red; 3 points, significant: dark red; 4 points, very obvious: extremely deep red.
Scaling: 0 points, none; 1 point, slight: there are scales on part of the epidermis, mainly fine scales; 2 points, moderate: most of the skin surface is completely or incompletely covered with scales, in a flaky form; 3 points, Significant: almost all skin is covered with scales, and the scales are thick and layered; 4 points, very obvious: all the skin is covered with scales, and the scales are thick and layered.
Plaque thickening degree: 0 points, none: flush with normal skin; 1 points, slight: slightly higher than the skin surface: 2 points, moderate: moderately raised, with round or sloped plaque edges; 3 points, obvious Score: The plaque is hypertrophic and the bulge is obvious; 4 points, very significant: it is highly thickened and the bulge is very obvious.
Skin proliferation inhibition rate (%)=1−[(skin thickness of the treatment group on the 7th day−skin thickness of the blank control group on the 7th day)/skin thickness of the negative control group on the 7th day−skin thickness of the blank control group on the 7th day)]%.
All data are expressed as Mean t SEM. The statistical analysis software SPSS23.0 was used to conduct normal distribution and homogeneity of variance tests on the data. Based on the results, the single-factor analysis of variance method was selected and the homogeneity of variance test was selected based on the results. *P<0.05 will be considered a statistically significant difference.

[1] = system: atopic dermatitis animal model; assay: Atopic dermatitis animal model (dinitrochlorobenzene induced); type: in vivo, BALB/C mice; conditions: for Inhibition rate of auricular thickening / Inhibition rate of skin thickening: 10th day of treatment
Text: BALB/C mice, 55 pieces, female, were 6 weeks old at the time of purchase and 8 weeks old at the time of experiment, weighing 18 g-20 g. The animals were from Shanghai Lingchang Biotechnology Co, Ltd (SCXK (Shanghai) 2018-0003), experimental animal production certificate number 20180003012342: experimental animal use license number; SYXK(Shanghai)2020-0001 (Via Biotechnology (Shanghai) Ltd.).
Modeling and administration method; Use depilatory cream to remove the hair of an area of about 5 cm×2 cm from the top of the head to the back of each animal. The application time of the depilatory cream should be controlled within 2 minutes. Wash the depilated area with warm water and wash off the depilatory agent, immediately use a hair dryer to dry the animal's hair, and place the animal on a 37° C. constant-temperature electric blanket for 1 h-2 h. After the animal moves freely, place it in a breeding cage and recover for 1 day (if the animal's skin is red, swollen and damaged after hair removal, it will its elimination). On the second day, 42 animals with normal skin were selected and randomly divided into groups according to body weight, with 6 animals in each group, totaling 7 groups. Except for the G1 normal control group, each animal in the other groups was evenly smeared with 200 μL of 0.5 wt % dinitrochlorobenzene solution (the solvent was acetone and olive oil with a mass ratio of 3:1) on the back and auricle for three consecutive days every day. Induction (the first stage of induction), the second stage of induction started after 14 days, and was induced with 1 wt % dinitrochlorobenzene solution (the solvent was acetone and olive oil with a mass ratio of 3:1) every three days until the end of the experiment, start treatment and administration at the same time, and group administration is shown in Table 6.
Skin thickness (double layer): Use a vernier caliper to measure the double layer thickness of the back skin on the 1 day before modeling, and on the 14th, 17th, 20th, 23rd, 26th, and 28th days after modeling.
Auricle thickness: Use a vernier caliper to measure the thickness of the right auricle 1 day before modeling, and on days 14, 17, 20, 23, 26, and 28 after modeling.
AD-SI score: The condition score refers to the clinical SI scoring standard, and scores three indicators: skin color/erythema, scaly erythema, scaly/peeling/lichenification, thickening, and thickening/edema degree. The total score is 12 points. Scoring standard as follows:
Erythema/skin color: 0 points, none; 1 points, slight: light red; 2 points, moderate: red; 3 points, significant: dark red; 4 points, very obvious: extremely deep red.
Scaling/peeling/lichenification: 0 points, none; 1 point, slight: there are scales/peeling/lichenification on part of the epidermis, mainly subtle; 2 points, moderate: most of the skin surface is completely or incompletely covered with Scaling/peeling/lichenification, flaky; 3 points, significant: almost all skin is covered with scales/peeling/lichenification, and the scales/peeling/lichenification are thick and layered; 4 points, very obvious: all skin is covered with Scaling/peeling/lichenification, very thick and layered.
Thickening/edema: 0 points, none: flush with normal skin; 1 points, slight: slightly higher than the normal skin surface: 2 points, moderate: moderately raised, with round or sloped plaque edges: 3 points, obvious Score: The plaque is hypertrophic and the bulge is obvious; 4 points, very significant: it is highly thickened and the bulge is very obvious. Skin/auricle hyperplasia inhibition rate (%)=1−[(skin/auricle thickness of the treatment group−skin/auricle thickness of the blank control group)/skin/auricle thickness of the negative control group−skin/auricle of the blank control group thickness)]%.
All data are expressed as Mean±SD or Mean±SEM. Use the statistical analysis software SPSS23.0 to conduct normal distribution and homogeneity of variance tests on the data. […]

[2] = 30 mg/kg oral twice a day, Day 0
[3] = 30 mg/kg oral twice a day, Day 1
[4] = 30 mg/kg oral twice a day, Day 4
[5] = 30 mg/kg oral twice a day, Day 7
[6] = 30 mg/kg oral twice a day, Day 10
[7] = 10 mg/kg oral twice a day, Day 0
[8] = 10 mg/kg oral twice a day, Day 1
[9] = 10 mg/kg oral twice a day, Day 4
[10] = 10 mg/kg oral twice a day, Day 7
[11] = 10 mg/kg oral twice a day, Day 10

C[C@@H]1CCN(C(=O)CC#N)C[C@@H]1N(C)c1ncnc2[nH]ccc12 [Tofacitinib, reference compound]
Inhibition rate of skin thickening (psoriasis animal model; 7th day of treatment): 69.2%
Average skin thickness (double layer) (psoriasis animal model; Day 0): 0.51 ± 0.01 mm
PASI score (psoriasis animal model; Day 0): 0.0 points
Average skin thickness (double layer) (psoriasis animal model; Day 1): 0.66 ± 0.02 mm
PASI score (psoriasis animal model; Day 1): 0.0 points
Average skin thickness (double layer) (psoriasis animal model; Day 3): 1.28 ± 0.09** mm
PASI score (psoriasis animal model; Day 3): 4.6 ± 0.50 points
Average skin thickness (double layer) (psoriasis animal model; Day 5): 1.09 ± 0.06*** mm
PASI score (psoriasis animal model; Day 5): 4.9 ± 0.42*** points
Average skin thickness (double layer) (psoriasis animal model; Day 7): 1.05 ± 0.04*** mm and 1.05 mm
PASI score (psoriasis animal model; Day 7): 2.8 ± 0.43*** points
Inhibition rate of auricular thickening ([1]; 30 mg/kg oral twice a day): 25.86%
Inhibition rate of skin thickening ([1]; 30 mg/kg oral twice a day): 27.86%
AD-SI score [1, 2]: 0.00 points
Average auricle thickness [1, 2]: 0.19 ± 0.01 mm
Average skin thickness (double layer) [1, 2]: 0.63 ± 0.03 mm
AD-SI score [1, 3]: 0.00 points
Average auricle thickness [1, 3]: 0.22 ± 0.01 mm
Average skin thickness (double layer) [1, 3]: 0.99 ± 0.03 mm
AD-SI score [1, 4]: 0.17 ± 0.41 points
Average auricle thickness [1, 4]: 0.28 ± 0.01 mm
Average skin thickness (double layer) [1, 4]: 1.13 ± 0.1 mm
AD-SI score [1, 5]: 7.17 ± 0.98 points
Average auricle thickness [1, 5]: 0.44 ± 0.03 mm
Average skin thickness (double layer) [1, 5]: 1.78 ± 0.11 mm
AD-SI score [1, 6]: 6.33 ± 1.37 points
Average auricle thickness [1, 6]: 0.64 ± 0.05 mm and 0.64 mm
Average skin thickness (double layer) [1, 6]: 2.08 ± 0.13 mm and 2.08 mm

CC[C@@H]1CN(C(=O)NCC(F)(F)F)C[C@@H]1c1cnc2cnc3[nH]ccc3n12 [Upatinib, Upadacitinib, reference compound]
Inhibition rate of auricular thickening ([1]; 10 mg/kg oral twice a day): 24.14%
Inhibition rate of skin thickening ([1]; 10 mg/kg oral twice a day): 20.40%
AD-SI score [1, 7]: 0.00 points
Average auricle thickness [1, 7]: 0.20 ± 0.01 mm
Average skin thickness (double layer) [1, 7]: 0.60 ± 0.02 mm
AD-SI score [1, 8]: 0.00 points
Average auricle thickness [1, 8]: 0.24 ± 0.01 mm
Average skin thickness (double layer) [1, 8]: 0.89 ± 0.04 mm
AD-SI score [1, 9]: 1.00 ± 0.00 points
Average auricle thickness [1, 9]: 0.32 ± 0.03**^ mm
Average skin thickness (double layer) [1, 9]: 1.07 ± 0.05 mm
AD-SI score [1, 10]: 6.50 ± 1.05 points
Average auricle thickness [1, 10]: 0.51 ± 0.05 mm
Average skin thickness (double layer) [1, 10]: 2.06 ± 0.25 mm
AD-SI score [1, 11]: 7.17 ± 1.47 points
Average auricle thickness [1, 11]: 0.65 ± 0.03 mm and 0.65 mm
Average skin thickness (double layer) [1, 11]: 2.23 ± 0.14 mm and 2.23 mm
